Reference: patent publication US9969694B2, “N-(arylalkyl)-N′-pyrazolyl-urea, thiourea, guanidine and cyanoguanidine compounds as TrkA kinase inhibitors” (Array BioPharma Inc., priority 2012, dated 2018)
Blank lines part the entries; values can stand above or below the compound they belong to.

What was measured:
Test in all cases: Off-Target Kinase Profiling
Type in all cases: biochemical
Details in all cases: 10 μM; ATP near Km
MAP3K5 = molecular target: T1, MAP3K5 (Homo sapiens, UniProt Q99683)
T1 construct: purchased Millipore, Inc. (KinaseProfiler service)
Summary of the method: (§1)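 Percent of control is reported, the mean of two replicate runs, for each compound tested at 10 μM. The ATP level was set close to each kinase's own Km.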

JAK2 = molecular target: T2, JAK2 (Homo sapiens, UniProt O60674)
T2 construct: purchased Millipore, Inc. (KinaseProfiler service)
Summary of the method: as §1

PKCzeta = molecular target: T3, PKCzeta (Homo sapiens, UniProt Q05513)
T3 construct: purchased Millipore, Inc. (KinaseProfiler service)
Summary of the method: as §1

Pim-1 = molecular target: T4, Pim-1 (Homo sapiens, UniProt P11309)
T4 construct: purchased Millipore, Inc. (KinaseProfiler service)
Summary of the method: as §1

DMPK = molecular target: T5, DMPK (Homo sapiens, UniProt Q09013)
T5 construct: purchased Millipore, Inc. (KinaseProfiler service)
Summary of the method: as §1

Plk2 = molecular target: T6, Plk2 (Homo sapiens, UniProt Q9NYY3)
T6 construct: purchased Millipore, Inc. (KinaseProfiler service)
Summary of the method: as §1

TNK2 = molecular target: T7, TNK2 (Homo sapiens, UniProt Q07912)
T7 construct: purchased Millipore, Inc. (KinaseProfiler service)
Summary of the method: as §1

GSK3beta = molecular target: T8, GSK3beta (Homo sapiens, UniProt P49841)
T8 construct: purchased Millipore, Inc. (KinaseProfiler service)
Summary of the method: as §1

DCAMKL2 = molecular target: T9, DCAMKL2 (Homo sapiens, UniProt Q8N568)
T9 construct: purchased Millipore, Inc. (KinaseProfiler service)
Summary of the method: as §1

CK1_y = system: CK1_y
Summary of the method: as §1

CAMK2d = molecular target: T10, CAMK2d (Homo sapiens, UniProt Q13557)
T10 construct: purchased Millipore (KinaseProfiler service)
Summary of the method: as §1

PASK = molecular target: T11, PASK (Homo sapiens, UniProt Q96RG2)
T11 construct: purchased Millipore, Inc. (KinaseProfiler service)
Summary of the method: as §1

MEK1 = molecular target: T12, MEK1 (Homo sapiens, UniProt Q02750)
T12 construct: purchased Millipore, Inc. (KinaseProfiler service)
Summary of the method: as §1

Flt3 = molecular target: T13, Flt3 (Homo sapiens, UniProt P36888)
T13 construct: purchased Millipore, Inc. (KinaseProfiler service)
Summary of the method: as §1

IGF-1R = molecular target: T14, IGF-1R (Homo sapiens, UniProt P08069)
T14 construct: purchased Millipore, Inc. (KinaseProfiler service)
Summary of the method: as §1

Mer = molecular target: T15, Mer (Homo sapiens, UniProt Q12866)
T15 construct: purchased Millipore, Inc. (KinaseProfiler service)
Summary of the method: as §1

GRK6 = molecular target: T16, GRK6 (Homo sapiens, UniProt P43250)
T16 construct: purchased Millipore, Inc. (KinaseProfiler service)
Summary of the method: as §1

VRK2 = molecular target: T17, VRK2 (Homo sapiens, UniProt Q86Y07)
T17 construct: purchased Millipore, Inc. (KinaseProfiler service)
Summary of the method: as §1

Lyn = molecular target: T18, Lyn (Homo sapiens, UniProt P07948)
T18 construct: purchased Millipore, Inc. (KinaseProfiler service)
Summary of the method: as §1

SGK1 = molecular target: T19, SGK1 (Homo sapiens, UniProt O00141)
T19 construct: purchased Millipore, Inc. (KinaseProfiler service)
Summary of the method: as §1

CSK = molecular target: T20, CSK (Homo sapiens, UniProt P41240)
T20 construct: purchased Millipore, Inc. (KinaseProfiler service)
Summary of the method: as §1

EphA8 = molecular target: T21, EphA8 (Homo sapiens, UniProt P29322)
T21 construct: purchased Millipore, Inc. (KinaseProfiler service)
Summary of the method: as §1

DAPK3 = molecular target: T22, DAPK3 (Homo sapiens, UniProt O43293)
T22 construct: purchased Millipore, Inc. (KinaseProfiler service)
Summary of the method: as §1

Yes = molecular target: T23, Yes (Homo sapiens, UniProt P07947)
T23 construct: purchased Millipore, Inc. (KinaseProfiler service)
Summary of the method: as §1

Tie2 = molecular target: T24, Tie2 (Homo sapiens, UniProt Q02763)
T24 construct: purchased Millipore, Inc. (KinaseProfiler service)
Summary of the method: as §1

Bmx = molecular target: T25, Bmx (Homo sapiens, UniProt P51813)
T25 construct: purchased Millipore (KinaseProfiler service)
Summary of the method: as §1

EphB1 = molecular target: T26, EphB1 (Homo sapiens, UniProt P54762)
T26 construct: purchased Millipore, Inc. (KinaseProfiler service)
Summary of the method: as §1

LIMK1 = molecular target: T27, LIMK1 (Homo sapiens, UniProt P53667)
T27 construct: purchased Millipore, Inc. (KinaseProfiler service)
Summary of the method: as §1

NEK7 = molecular target: T28, NEK7 (Homo sapiens, UniProt Q8TDX7)
T28 construct: purchased Millipore, Inc. (KinaseProfiler service)
Summary of the method: as §1

PKCepsilon = molecular target: T29, PKCepsilon (Homo sapiens, UniProt Q02156)
T29 construct: purchased Millipore, Inc. (KinaseProfiler service)
Summary of the method: as §1

BrSK2 = molecular target: T30, BrSK2 (Homo sapiens, UniProt Q8IWQ3)
T30 construct: purchased Millipore (KinaseProfiler service)
Summary of the method: as §1

CAMK1 = molecular target: T31, CAMK1 (Homo sapiens, UniProt Q14012)
T31 construct: purchased Millipore (KinaseProfiler service)
Summary of the method: as §1

CK2alpha2 = molecular target: T32, CK2alpha2 (Homo sapiens, UniProt P19784)
T32 construct: purchased Millipore, Inc. (KinaseProfiler service)
Summary of the method: as §1

CDK9/cyclinT1 = molecular target: T33, CDK9/cyclinT1 (Homo sapiens, UniProt P50750)
T33 construct: purchased Millipore, Inc. (KinaseProfiler service)
Summary of the method: as §1

DRAK1 = molecular target: T34, DRAK1 (Homo sapiens, UniProt Q9UEE5)
T34 construct: purchased Millipore, Inc. (KinaseProfiler service)
Summary of the method: as §1

MARK1 = molecular target: T35, MARK1 (Homo sapiens, UniProt Q9P0L2)
T35 construct: purchased Millipore, Inc. (KinaseProfiler service)
Summary of the method: as §1

CDK1/cyclinB = molecular target: T36, CDK1/cyclinB (Homo sapiens, UniProt P06493)
T36 construct: purchased Millipore (KinaseProfiler service)
Summary of the method: as §1

TLK2 = molecular target: T37, TLK2 (Homo sapiens, UniProt Q86UE8)
T37 construct: purchased Millipore, Inc. (KinaseProfiler service)
Summary of the method: as §1

p38delta = molecular target: T38, p38delta (Homo sapiens, UniProt O15264)
T38 construct: purchased Millipore, Inc. (KinaseProfiler service)
Summary of the method: as §1

Flt1 = molecular target: T39, Flt1 (Homo sapiens, UniProt P17948)
T39 construct: purchased Millipore, Inc. (KinaseProfiler service)
Summary of the method: as §1

Rsk3 = molecular target: T40, Rsk3 (Homo sapiens, UniProt Q15349)
T40 construct: purchased Millipore, Inc. (KinaseProfiler service)
Summary of the method: as §1

T35 sequence (Q9P0L2 whole entry): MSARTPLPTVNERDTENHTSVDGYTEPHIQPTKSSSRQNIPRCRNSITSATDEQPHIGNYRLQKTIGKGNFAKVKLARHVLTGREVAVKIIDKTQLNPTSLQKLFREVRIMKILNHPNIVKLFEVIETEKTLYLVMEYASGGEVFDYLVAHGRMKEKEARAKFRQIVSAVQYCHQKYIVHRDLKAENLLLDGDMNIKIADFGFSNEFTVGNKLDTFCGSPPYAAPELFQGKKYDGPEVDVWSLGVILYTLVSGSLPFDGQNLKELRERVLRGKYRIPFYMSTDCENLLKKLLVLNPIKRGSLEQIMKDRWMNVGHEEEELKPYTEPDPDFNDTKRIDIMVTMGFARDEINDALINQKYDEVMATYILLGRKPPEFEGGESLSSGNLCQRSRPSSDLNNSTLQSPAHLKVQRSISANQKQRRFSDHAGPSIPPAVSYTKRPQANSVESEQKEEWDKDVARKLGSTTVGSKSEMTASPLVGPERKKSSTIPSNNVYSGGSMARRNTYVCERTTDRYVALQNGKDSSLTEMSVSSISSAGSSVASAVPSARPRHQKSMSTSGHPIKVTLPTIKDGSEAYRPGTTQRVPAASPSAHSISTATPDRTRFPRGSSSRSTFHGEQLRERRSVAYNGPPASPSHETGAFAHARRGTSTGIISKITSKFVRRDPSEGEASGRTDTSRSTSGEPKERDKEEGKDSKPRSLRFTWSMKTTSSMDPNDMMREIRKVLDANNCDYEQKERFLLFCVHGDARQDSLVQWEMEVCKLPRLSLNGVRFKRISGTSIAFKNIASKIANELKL
T7 sequence (Q07912 whole entry): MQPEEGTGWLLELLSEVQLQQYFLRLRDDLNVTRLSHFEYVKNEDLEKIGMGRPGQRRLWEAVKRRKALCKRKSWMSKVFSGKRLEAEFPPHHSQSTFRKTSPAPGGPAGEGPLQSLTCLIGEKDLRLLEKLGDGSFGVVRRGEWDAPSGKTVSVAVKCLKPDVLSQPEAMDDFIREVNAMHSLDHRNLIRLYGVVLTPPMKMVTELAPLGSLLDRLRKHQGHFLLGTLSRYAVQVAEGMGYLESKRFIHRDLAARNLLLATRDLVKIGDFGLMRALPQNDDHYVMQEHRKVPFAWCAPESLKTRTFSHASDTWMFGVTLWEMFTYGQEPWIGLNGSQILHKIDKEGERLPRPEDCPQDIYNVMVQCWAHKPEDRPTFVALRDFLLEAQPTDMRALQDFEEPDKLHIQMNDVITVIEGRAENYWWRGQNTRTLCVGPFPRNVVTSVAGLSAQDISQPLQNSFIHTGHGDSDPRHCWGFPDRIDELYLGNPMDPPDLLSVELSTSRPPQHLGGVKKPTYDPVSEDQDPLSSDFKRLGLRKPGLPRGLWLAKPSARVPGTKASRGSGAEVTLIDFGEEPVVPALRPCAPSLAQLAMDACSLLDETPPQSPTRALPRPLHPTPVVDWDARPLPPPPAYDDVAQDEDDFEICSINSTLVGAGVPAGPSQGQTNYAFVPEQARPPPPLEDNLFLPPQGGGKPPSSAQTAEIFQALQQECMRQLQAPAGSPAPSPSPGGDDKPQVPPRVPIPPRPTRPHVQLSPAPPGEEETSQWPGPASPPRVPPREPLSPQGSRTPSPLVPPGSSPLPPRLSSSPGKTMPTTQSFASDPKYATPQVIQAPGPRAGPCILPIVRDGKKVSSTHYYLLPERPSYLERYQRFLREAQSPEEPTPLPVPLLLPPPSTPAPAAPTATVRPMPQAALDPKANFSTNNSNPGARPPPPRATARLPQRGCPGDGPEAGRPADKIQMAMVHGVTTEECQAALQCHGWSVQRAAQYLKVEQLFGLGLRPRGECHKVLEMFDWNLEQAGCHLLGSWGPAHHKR
T23 sequence (P07947 whole entry): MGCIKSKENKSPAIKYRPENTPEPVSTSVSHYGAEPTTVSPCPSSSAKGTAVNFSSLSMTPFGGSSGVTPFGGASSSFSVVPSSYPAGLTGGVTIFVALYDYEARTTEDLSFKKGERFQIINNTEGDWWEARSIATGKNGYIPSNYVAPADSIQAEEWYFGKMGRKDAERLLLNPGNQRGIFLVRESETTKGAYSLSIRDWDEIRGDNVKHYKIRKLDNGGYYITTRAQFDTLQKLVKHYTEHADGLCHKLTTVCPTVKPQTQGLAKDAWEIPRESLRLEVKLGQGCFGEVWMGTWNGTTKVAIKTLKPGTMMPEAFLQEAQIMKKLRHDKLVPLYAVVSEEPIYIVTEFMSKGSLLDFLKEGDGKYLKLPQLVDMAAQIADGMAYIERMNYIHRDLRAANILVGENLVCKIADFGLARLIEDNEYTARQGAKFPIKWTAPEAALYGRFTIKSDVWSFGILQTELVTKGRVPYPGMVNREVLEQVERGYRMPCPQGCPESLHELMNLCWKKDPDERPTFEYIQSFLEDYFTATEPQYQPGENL
T24 sequence (Q02763 23-1124): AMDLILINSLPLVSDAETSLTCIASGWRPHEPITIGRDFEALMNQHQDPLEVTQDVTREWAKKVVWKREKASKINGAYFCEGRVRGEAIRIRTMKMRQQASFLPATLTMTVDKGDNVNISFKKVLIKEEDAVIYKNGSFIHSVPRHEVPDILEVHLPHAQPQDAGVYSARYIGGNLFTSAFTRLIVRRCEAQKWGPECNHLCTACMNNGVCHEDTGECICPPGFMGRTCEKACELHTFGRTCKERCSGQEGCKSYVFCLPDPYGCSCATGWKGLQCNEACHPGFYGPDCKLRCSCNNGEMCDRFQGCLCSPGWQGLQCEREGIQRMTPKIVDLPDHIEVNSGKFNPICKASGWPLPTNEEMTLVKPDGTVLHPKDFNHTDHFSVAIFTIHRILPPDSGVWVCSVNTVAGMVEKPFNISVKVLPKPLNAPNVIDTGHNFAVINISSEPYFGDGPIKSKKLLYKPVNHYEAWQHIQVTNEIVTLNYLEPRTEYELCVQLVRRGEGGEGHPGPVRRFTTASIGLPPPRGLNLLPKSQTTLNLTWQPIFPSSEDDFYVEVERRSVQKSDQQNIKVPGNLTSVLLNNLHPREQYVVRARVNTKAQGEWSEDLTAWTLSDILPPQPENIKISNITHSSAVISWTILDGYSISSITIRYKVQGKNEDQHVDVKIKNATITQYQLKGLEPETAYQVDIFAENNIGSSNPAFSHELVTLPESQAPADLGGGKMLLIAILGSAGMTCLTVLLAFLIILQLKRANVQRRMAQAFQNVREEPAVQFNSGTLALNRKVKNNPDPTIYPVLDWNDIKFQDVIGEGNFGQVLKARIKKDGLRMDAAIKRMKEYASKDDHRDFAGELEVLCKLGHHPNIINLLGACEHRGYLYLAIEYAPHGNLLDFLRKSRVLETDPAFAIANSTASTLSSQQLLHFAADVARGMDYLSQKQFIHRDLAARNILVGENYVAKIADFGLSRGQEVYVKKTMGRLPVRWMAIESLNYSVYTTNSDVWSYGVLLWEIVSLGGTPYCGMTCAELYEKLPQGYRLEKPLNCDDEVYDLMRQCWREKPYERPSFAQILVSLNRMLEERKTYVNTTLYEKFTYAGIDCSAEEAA
T12 sequence (Q02750 whole entry): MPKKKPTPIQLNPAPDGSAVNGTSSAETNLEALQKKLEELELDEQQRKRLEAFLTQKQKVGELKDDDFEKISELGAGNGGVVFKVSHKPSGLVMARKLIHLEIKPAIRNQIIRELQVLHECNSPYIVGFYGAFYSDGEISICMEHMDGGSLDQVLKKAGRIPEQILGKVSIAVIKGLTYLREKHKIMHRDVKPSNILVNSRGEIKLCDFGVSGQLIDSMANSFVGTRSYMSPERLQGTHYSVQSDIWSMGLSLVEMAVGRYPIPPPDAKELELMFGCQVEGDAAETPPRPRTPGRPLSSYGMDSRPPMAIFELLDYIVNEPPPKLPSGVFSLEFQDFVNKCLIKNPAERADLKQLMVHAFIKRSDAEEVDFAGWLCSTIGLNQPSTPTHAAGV
T6 sequence (Q9NYY3 whole entry): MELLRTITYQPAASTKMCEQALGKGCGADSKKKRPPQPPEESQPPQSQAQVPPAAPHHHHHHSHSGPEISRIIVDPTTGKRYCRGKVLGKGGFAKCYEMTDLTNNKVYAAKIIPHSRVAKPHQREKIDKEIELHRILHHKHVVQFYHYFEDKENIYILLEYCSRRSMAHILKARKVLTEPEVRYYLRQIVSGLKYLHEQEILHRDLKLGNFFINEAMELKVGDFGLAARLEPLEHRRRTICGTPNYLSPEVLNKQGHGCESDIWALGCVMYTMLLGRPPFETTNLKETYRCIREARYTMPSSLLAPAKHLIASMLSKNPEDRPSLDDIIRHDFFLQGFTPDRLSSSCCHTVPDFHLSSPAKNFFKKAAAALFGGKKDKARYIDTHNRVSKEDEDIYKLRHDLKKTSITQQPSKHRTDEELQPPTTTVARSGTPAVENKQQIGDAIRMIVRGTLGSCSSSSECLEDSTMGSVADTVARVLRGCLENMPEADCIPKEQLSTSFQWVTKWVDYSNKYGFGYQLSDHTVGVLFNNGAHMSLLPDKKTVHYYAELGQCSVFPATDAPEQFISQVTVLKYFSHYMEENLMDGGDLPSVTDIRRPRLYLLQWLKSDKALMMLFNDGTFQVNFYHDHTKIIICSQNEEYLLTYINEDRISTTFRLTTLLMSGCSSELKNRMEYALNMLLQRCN
T22 sequence (O43293 whole entry): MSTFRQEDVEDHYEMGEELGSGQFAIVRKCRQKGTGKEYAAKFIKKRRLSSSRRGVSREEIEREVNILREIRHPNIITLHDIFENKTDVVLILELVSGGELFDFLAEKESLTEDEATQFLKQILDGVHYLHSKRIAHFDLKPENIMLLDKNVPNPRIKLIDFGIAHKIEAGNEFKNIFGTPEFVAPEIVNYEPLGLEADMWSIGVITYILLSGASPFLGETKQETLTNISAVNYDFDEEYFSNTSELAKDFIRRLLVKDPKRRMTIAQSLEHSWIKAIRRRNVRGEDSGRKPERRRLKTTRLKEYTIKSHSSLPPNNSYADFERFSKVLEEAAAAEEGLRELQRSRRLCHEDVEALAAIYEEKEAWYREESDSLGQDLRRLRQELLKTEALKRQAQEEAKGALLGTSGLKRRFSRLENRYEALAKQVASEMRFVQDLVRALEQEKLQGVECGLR

Avg POC MAP3K5 (MAP3K5): 100 POC
Avg POC JAK2 (JAK2): 130 POC
Avg POC PKCzeta (PKCzeta): 99 POC
Avg POC Pim-1 (Pim-1): 138 POC
Avg POC DMPK (DMPK): 104 POC
Avg POC Plk2 (Plk2): 102 POC
Avg POC TNK2 (TNK2): 119.5 POC
Avg POC GSK3beta (GSK3beta): 136.5 POC
Avg POC DCAMKL2 (DCAMKL2): 254.5 POC
Avg POC CK1_y (CK1_y): 97.5 POC
Avg POC CAMK2d (CAMK2d): 118 POC
Avg POC PASK (PASK): 205 POC
Avg POC MEK1 (MEK1): 117 POC
Avg POC Flt3 (Flt3): 78.5 POC
Avg POC IGF-1R (IGF-1R): 44 POC
Avg POC Mer (Mer): 96.5 POC
Avg POC GRK6 (GRK6): 99 POC
Avg POC VRK2 (VRK2): 90.5 POC
Avg POC Lyn (Lyn): 104.5 POC
Avg POC SGK1 (SGK1): 279 POC
Avg POC CSK (CSK): 127.5 POC
Avg POC EphA8 (EphA8): 123 POC
Avg POC DAPK3 (DAPK3): 113 POC
Avg POC Yes (Yes): 113 POC
Avg POC Tie2 (Tie2): 137.5 POC
Avg POC Bmx (Bmx): 127.5 POC
Avg POC EphB1 (EphB1): 133 POC
Avg POC LIMK1 (LIMK1): 91.5 POC
Avg POC NEK7 (NEK7): 116.5 POC
Avg POC PKCepsilon (PKCepsilon): 92 POC
Avg POC BrSK2 (BrSK2): 145.5 POC
Avg POC CAMK1 (CAMK1): 111.5 POC
Avg POC CK2alpha2 (CK2alpha2): 99.5 POC
Avg POC CDK9/cyclinT1 (CDK9/cyclinT1): 108 POC
Avg POC DRAK1 (DRAK1): 141.5 POC
Avg POC MARK1 (MARK1): 109.5 POC
Avg POC CDK1/cyclinB (CDK1/cyclinB): 99 POC
Avg POC TLK2 (TLK2): 109 POC
Avg POC p38delta (p38delta): 85 POC
Avg POC Flt1 (Flt1): 91 POC
Avg POC Rsk3 (Rsk3): 103 POC
SMILES: COCc1ccc(C(F)(F)F)c(CNC(=O)Nc2c(C)c(-c3cnn(C)c3)nn2-c2ccccc2)c1 [Example 33, 1-(1′,4-dimethyl-1-phenyl-1H,1′H-[3,4′-bipyrazol]-5-yl)-3-(5-(methoxymethyl)-2-(trifluoromethyl)benzyl)urea]

Avg POC MAP3K5 (MAP3K5): 99 POC
Avg POC JAK2 (JAK2): 106.5 POC
Avg POC PKCzeta (PKCzeta): 92.5 POC
Avg POC Pim-1 (Pim-1): 101.5 POC
Avg POC DMPK (DMPK): 101.5 POC
Avg POC Plk2 (Plk2): 101 POC
Avg POC TNK2 (TNK2): 114.5 POC
Avg POC GSK3beta (GSK3beta): 115 POC
Avg POC DCAMKL2 (DCAMKL2): 96.5 POC
Avg POC CK1_y (CK1_y): 97 POC
Avg POC CAMK2d (CAMK2d): 126.5 POC
Avg POC PASK (PASK): 70 POC
Avg POC MEK1 (MEK1): 121 POC
Avg POC Flt3 (Flt3): 54 POC
Avg POC IGF-1R (IGF-1R): 82 POC
Avg POC Mer (Mer): 87.5 POC
Avg POC GRK6 (GRK6): 97.5 POC
Avg POC VRK2 (VRK2): 90 POC
Avg POC Lyn (Lyn): 86 POC
Avg POC SGK1 (SGK1): 96 POC
Avg POC CSK (CSK): 132 POC
Avg POC EphA8 (EphA8): 97.5 POC
Avg POC DAPK3 (DAPK3): 93.5 POC
Avg POC Yes (Yes): 88.5 POC
Avg POC Tie2 (Tie2): 81.5 POC
Avg POC Bmx (Bmx): 100 POC
Avg POC EphB1 (EphB1): 131 POC
Avg POC LIMK1 (LIMK1): 92 POC
Avg POC NEK7 (NEK7): 110 POC
Avg POC PKCepsilon (PKCepsilon): 83.5 POC
Avg POC BrSK2 (BrSK2): 95 POC
Avg POC CAMK1 (CAMK1): 92 POC
Avg POC CK2alpha2 (CK2alpha2): 109 POC
Avg POC CDK9/cyclinT1 (CDK9/cyclinT1): 98 POC
Avg POC DRAK1 (DRAK1): 92.5 POC
Avg POC MARK1 (MARK1): 97 POC
Avg POC CDK1/cyclinB (CDK1/cyclinB): 92 POC
Avg POC TLK2 (TLK2): 97.5 POC
Avg POC p38delta (p38delta): 81 POC
Avg POC Flt1 (Flt1): 88 POC
Avg POC Rsk3 (Rsk3): 101 POC
SMILES: COCc1ccc(C2CCC2)c(CNC(=O)Nc2c(C)c(-c3cnc(C)nc3)nn2-c2ccccc2)c1 [Example 10, 1-(2-cyclobutyl-5-(methoxymethyl)benzyl)-3-(4-methyl-3-(2-methylpyrimidin-5-yl)-1-phenyl-1H-pyrazol-5-yl)urea]
